Laboratory results: patent US12655106B2 (Eikonizo Therapeutics, Inc., priority 2021, dated 2026)

What was measured:
Full length Human HDAC6 = molecular target: T1, Full length Human HDAC6 (Homo sapiens, UniProt Q9UBN7); assay: Caliper endpoint assay for HDAC enzymatic activity (HDAC6); assay type: biochemical; conditions: for IC50: in vitro enzymatic, Caliper endpoint assay, 30 min pre-incubation, 1 μM substrate peptide; for Selectivity (6 v 8): ratio of HDAC8 IC50/HDAC6 IC50
T1 construct: Full length Human HDAC6; FLAG (C); host or cells: baculovirus expression system
T1 sequence (Q9UBN7 1-1215): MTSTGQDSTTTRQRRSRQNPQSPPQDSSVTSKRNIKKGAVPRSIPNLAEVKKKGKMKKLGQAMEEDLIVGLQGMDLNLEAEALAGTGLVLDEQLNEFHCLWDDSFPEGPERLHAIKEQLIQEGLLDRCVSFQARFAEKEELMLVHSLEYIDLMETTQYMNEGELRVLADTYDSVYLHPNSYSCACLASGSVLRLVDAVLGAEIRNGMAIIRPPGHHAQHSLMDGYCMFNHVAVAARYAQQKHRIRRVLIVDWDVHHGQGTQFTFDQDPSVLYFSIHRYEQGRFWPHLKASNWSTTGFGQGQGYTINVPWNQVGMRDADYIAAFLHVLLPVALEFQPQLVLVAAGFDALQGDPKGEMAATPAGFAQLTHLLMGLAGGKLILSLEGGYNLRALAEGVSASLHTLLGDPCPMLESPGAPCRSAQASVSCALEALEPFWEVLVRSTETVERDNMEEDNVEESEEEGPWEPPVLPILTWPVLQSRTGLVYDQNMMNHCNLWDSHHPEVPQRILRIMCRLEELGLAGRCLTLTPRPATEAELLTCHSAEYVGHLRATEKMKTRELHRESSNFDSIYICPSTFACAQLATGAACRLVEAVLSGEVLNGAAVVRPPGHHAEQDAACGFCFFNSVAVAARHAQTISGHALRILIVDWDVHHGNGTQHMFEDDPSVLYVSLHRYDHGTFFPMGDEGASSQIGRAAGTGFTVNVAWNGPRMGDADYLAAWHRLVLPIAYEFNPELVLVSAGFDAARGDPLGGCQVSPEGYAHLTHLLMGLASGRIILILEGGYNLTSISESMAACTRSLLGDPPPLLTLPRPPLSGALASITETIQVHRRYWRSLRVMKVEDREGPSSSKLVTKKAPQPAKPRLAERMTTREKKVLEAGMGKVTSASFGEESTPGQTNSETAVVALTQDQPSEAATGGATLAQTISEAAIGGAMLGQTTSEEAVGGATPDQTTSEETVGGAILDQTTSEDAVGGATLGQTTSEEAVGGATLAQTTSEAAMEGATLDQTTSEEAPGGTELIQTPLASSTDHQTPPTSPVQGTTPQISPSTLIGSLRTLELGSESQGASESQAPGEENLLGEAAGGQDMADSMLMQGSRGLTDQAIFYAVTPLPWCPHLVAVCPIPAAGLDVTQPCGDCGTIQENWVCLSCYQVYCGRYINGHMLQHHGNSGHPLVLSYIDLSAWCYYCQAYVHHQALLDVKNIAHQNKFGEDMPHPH

Full length Human HDAC8 = molecular target: T2, Full length Human HDAC8 (Homo sapiens, UniProt Q9BY41); assay: Caliper endpoint assay for HDAC enzymatic activity (HDAC8); assay type: biochemical; conditions: in vitro enzymatic, 30 min pre-incubation, 1 μM substrate peptide
T2 construct: Full length Human HDAC8; HIS (N); host or cells: baculovirus expression system
T2 sequence (Q9BY41 1-377): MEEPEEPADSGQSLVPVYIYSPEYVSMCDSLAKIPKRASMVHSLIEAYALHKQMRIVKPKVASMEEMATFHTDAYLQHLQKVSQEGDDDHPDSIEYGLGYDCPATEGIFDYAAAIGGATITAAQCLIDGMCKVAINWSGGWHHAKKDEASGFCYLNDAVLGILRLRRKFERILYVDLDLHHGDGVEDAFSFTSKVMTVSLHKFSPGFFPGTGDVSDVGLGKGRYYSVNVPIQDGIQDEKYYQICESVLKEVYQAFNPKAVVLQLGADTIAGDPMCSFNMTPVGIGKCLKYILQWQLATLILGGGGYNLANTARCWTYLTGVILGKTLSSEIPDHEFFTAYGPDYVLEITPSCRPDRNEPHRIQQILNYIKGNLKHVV

IC50 (Full length Human HDAC6) [µM] | Selectivity (6 v 8) (Full length Human HDAC6) | IC50 (Full length Human HDAC8) [µM] | SMILES
0.001 to 0.1 | IV (IV: >100-1000) | 10 to 100 | CC[C@H]1Cc2c(F)cc(C(=O)NO)cc2CN1C[C@@]12C[C@@H](CO1)N(C)C2 (single isomer, unassigned) [Compound 553]
0.001 to 0.1 | IV (IV: >100-1000) | 1 to 10 | CC[C@@H]1Cc2c(F)cc(C(=O)NO)cc2CN1C[C@]12C[C@H](CO1)N(C)C2 (single isomer, unassigned) [Compound 554]
> 100 | V (V: >1000) | > 100 | CC[C@@H]1Cc2c(F)cc(C(=O)NO)cc2CN1C[C@@]12C[C@@H](CO1)N(C)C2 (single isomer, unassigned) [Compound 555]
0.1 to 1 | III (III: >10-100) | 10 to 100 | CC[C@@H]1Cc2c(F)cc(C(=O)NO)cc2CN1C1CCCC1 (single isomer, unassigned) [Compound 580]
0.1 to 1 | III (III: >10-100) | 10 to 100 | CC[C@H]1Cc2c(F)cc(C(=O)NO)cc2CN1C1CCCC1 (single isomer, unassigned) [Compound 581]
0.1 to 1 | III (III: >10-100) | 10 to 100 | CC[C@@H]1Cc2c(F)cc(C(=O)NO)cc2CN1C1CCCCC1 (single isomer, unassigned) [Compound 582]
0.1 to 1 | III (III: >10-100) | 10 to 100 | CC[C@H]1Cc2c(F)cc(C(=O)NO)cc2CN1C1CCCCC1 (single isomer, unassigned) [Compound 583]
0.1 to 1 | IV (IV: >100-1000) | 10 to 100 | CC[C@@H]1Cc2c(F)cc(C(=O)NO)cc2CN1C1CC2(C1)CN(C)C2 (single isomer, unassigned) [Compound 584]
0.1 to 1 | III (III: >10-100) | 1 to 10 | CC[C@H]1Cc2c(F)cc(C(=O)NO)cc2CN1C1CC2(C1)CN(C)C2 (single isomer, unassigned) [Compound 585]
0.1 to 1 | III (III: >10-100) | 10 to 100 | CC[C@@H]1Cc2c(F)cc(C(=O)NO)cc2CN1C1CC2(CCOCC2)C1 (single isomer, unassigned) [Compound 590]
0.001 to 0.1 | IV (IV: >100-1000) | 10 to 100 | CC[C@H]1Cc2c(F)cc(C(=O)NO)cc2CN1C1CC2(CCOCC2)C1 (single isomer, unassigned) [Compound 591]
0.1 to 1 | IV (IV: >100-1000) | 10 to 100 | CC[C@@H]1Cc2c(F)cc(C(=O)NO)cc2CN1C1CC(C)(C)C1 (single isomer, unassigned) [Compound 592]
0.1 to 1 | IV (IV: >100-1000) | 10 to 100 | CC[C@H]1Cc2c(F)cc(C(=O)NO)cc2CN1C1CC(C)(C)C1 (single isomer, unassigned) [Compound 593]
0.001 to 0.1 | V (V: >1000) | > 100 | CC[C@@H]1Cc2c(F)cc(C(=O)NO)cc2CN1C1CC2(CCN(C)CC2)C1 (single isomer, unassigned) [Compound 594]
0.1 to 1 | IV (IV: >100-1000) | 10 to 100 | CC[C@H]1Cc2c(F)cc(C(=O)NO)cc2CN1C1CC2(CCN(C)CC2)C1 (single isomer, unassigned) [Compound 595]
0.001 to 0.1 | IV (IV: >100-1000) | 10 to 100 | CC[C@@H]1Cc2c(F)cc(C(=O)NO)cc2CN1C1CCC1 (single isomer, unassigned) [Compound 596]
0.1 to 1 | IV (IV: >100-1000) | 10 to 100 | CC[C@H]1Cc2c(F)cc(C(=O)NO)cc2CN1C1CCC1 (single isomer, unassigned) [Compound 597]
0.1 to 1 | IV (IV: >100-1000) | 10 to 100 | CC[C@@H]1Cc2c(F)cc(C(=O)NO)cc2CN1C1CC2(CCN(C3CC3)CC2)C1 (single isomer, unassigned) [Compound 598]
0.1 to 1 | IV (IV: >100-1000) | 10 to 100 | CC[C@H]1Cc2c(F)cc(C(=O)NO)cc2CN1C1CC2(CCN(C3CC3)CC2)C1 (single isomer, unassigned) [Compound 599]
0.001 to 0.1 | IV (IV: >100-1000) | 1 to 10 | CC[C@@H]1Cc2c(F)cc(C(=O)NO)cc2CN1C1COC1 (single isomer, unassigned) [Compound 600]
0.001 to 0.1 | IV (IV: >100-1000) | 10 to 100 | CC[C@H]1Cc2c(F)cc(C(=O)NO)cc2CN1C1COC1 (single isomer, unassigned) [Compound 601]
0.1 to 1 | III (III: >10-100) | 10 to 100 | CC[C@@H]1Cc2c(F)cc(C(=O)NO)cc2CN1C1CC2(CCN(C(C)=O)CC2)C1 (single isomer, unassigned) [Compound 602]
0.1 to 1 | IV (IV: >100-1000) | 10 to 100 | CC[C@H]1Cc2c(F)cc(C(=O)NO)cc2CN1C1CC2(CCN(C(C)=O)CC2)C1 (single isomer, unassigned) [Compound 603]
0.001 to 0.1 | – | 1 to 10 | CC[C@H](c1ccccc1)N1CCc2cc(C(=O)NO)cc(F)c2C1 [Compound 30]
0.001 to 0.1 | – | 1 to 10 | CC[C@@H](c1ccccc1)N1CCc2cc(C(=O)NO)cc(F)c2C1 [Compound 31]
0.001 to 0.1 | – | 1 to 10 | CC[C@@H]1CCCN1Cc1ccc(C(=O)NO)cc1F [Compound 48]
0.1 to 1 | – | 1 to 10 | CC[C@H]1CCCN1Cc1ccc(C(=O)NO)cc1F [Compound 49]

SMILES | IC50 (Full length Human HDAC6) [µM] | Selectivity (6 v 8) (Full length Human HDAC6) | IC50 (Full length Human HDAC8) [µM]
CC[C@H]1Cc2c(F)cc(C(=O)NO)cc2CN1CC1CC2CCC(C1)N2C (single isomer, unassigned) [Compound 570] | 0.001 to 0.1 | V (V: >1000) | 10 to 100
CC[C@@H]1Cc2c(F)cc(C(=O)NO)cc2CN1CC1CC2CCC(C1)N2C (single isomer, unassigned) [Compound 571] | 0.1 to 1 | III (III: >10-100) | 1 to 10
CC[C@@H]1Cc2c(F)cc(C(=O)NO)cc2CN1C[C@H]1C[C@H]2CC[C@@H](C1)N2C (single isomer, unassigned) [Compound 572] | 0.001 to 0.1 | III (III: >10-100) | 1 to 10
CC[C@H]1Cc2c(F)cc(C(=O)NO)cc2CN1C[C@@H]1C[C@H]2CC[C@@H](C1)N2C (single isomer, unassigned) [Compound 573] | 0.001 to 0.1 | IV (IV: >100-1000) | 1 to 10
CC[C@H]1Cc2c(F)cc(C(=O)NO)cc2CN1CC1CC2CCC(C1)N2C1CC1 (single isomer, unassigned) [Compound 576] | 0.001 to 0.1 | IV (IV: >100-1000) | 1 to 10
O=C(NO)c1cc(F)c(CN2C3CCC2CC(=NO)C3)cc1F [Compound 54] | 0.001 to 0.1 | III (III: >10-100) | 0.1 to 1
O=C(NO)c1cc(F)c2c(c1)CCN1CCC[C@@H]21 [Compound 79] | 0.001 to 0.1 | IV (IV: >100-1000) | 1 to 10
